Source: US20140249147A1, “Substituted Bicyclic Aza-Heterocycles and Analogues as Sirtuin Modulators” (GlaxoSmithKline, LLC, priority 2011, published 2014)

Legend:
[1] = molecular target: T1, SIRT1 (Homo sapiens, UniProt Q96EB6); test: Trp mass spectrometry assay of SIRT1 activation; format: biochemical; settings: Trp peptide substrate; for TYP EC1.5 (μM): concentration giving 150% activation of SIRT1; for TYP % Fold Act: percent maximum fold activation relative to control (100%)
T1 sequence (Q96EB6 1-747): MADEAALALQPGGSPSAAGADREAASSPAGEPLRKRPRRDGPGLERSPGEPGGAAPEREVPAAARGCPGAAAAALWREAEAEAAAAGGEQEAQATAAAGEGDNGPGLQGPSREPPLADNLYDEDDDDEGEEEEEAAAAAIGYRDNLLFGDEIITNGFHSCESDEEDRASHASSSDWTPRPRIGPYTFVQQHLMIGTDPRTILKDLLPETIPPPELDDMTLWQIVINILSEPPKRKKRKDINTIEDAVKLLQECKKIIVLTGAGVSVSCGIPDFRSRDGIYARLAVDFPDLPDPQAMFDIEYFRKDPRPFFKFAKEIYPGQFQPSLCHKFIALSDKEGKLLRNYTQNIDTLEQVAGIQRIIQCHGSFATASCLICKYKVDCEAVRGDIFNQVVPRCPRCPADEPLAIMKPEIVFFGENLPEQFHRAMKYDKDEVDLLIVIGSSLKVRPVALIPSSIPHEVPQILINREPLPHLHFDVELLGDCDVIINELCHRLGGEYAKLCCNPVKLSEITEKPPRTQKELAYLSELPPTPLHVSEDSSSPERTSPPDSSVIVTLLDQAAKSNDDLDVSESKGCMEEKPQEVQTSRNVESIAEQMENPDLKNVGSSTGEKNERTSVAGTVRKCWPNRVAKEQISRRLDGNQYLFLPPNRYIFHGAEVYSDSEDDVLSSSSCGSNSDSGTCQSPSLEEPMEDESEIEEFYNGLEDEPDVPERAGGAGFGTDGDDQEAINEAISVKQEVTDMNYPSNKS
Description: (§1) Mass spectrometry based assays were used to identify modulators of SIRT1 activity. The TAMRA based assay utilized a peptide having 20 amino acid residues as follows: Ac-EE-K(biotin)-GQSTSSHSK(Ac)NleSTEG-K(5TMR)-EE-NH2 (SEQ ID NO: 1), wherein K(Ac) is an acetylated lysine residue and Nle is a norleucine. The peptide was labeled with the fluorophore 5TMR (excitation 540 nm/emission 580 nm) at the C-terminus. The sequence of the peptide substrate was based on p53 with several modifications. In addition, the methionine residue naturally present in the sequence was replaced with the norleucine because the methionine may be susceptible to oxidation during synthesis and purification. The Trp based assay utilized a peptide having an amino acid residues as follows: Ac—R—H—K—K(Ac)—W—NH2 (SEQ ID NO: 2).
The Trp mass spectrometry assay was conducted as follows. 0.5 μM peptide substrate and 120 μM βNAD^+ were incubated with 10 nM SIRT1 for 25 minutes at 25° C. in a reaction buffer (50 mM HEPES pH 7.5, […], 1 mM DTT, 0.05% BSA). The SIRT1 protein was obtained by cloning the SirT 1 gene into a T7-promoter containing vector, which was then expressed in BL21(DE3) bacterial cells and purified as described in further detail below. Test compound was added at varying concentrations to this reaction mixture and the resulting reactions were monitored. After the 25 minute incubation with SIRT1, 10 μL of 10% formic acid was added to stop the reaction. The resulting reactions were sealed and frozen for later mass spec analysis. The relative SIRT1 activity was then determined by measuring the amount of O-acetyl-ADP-ribose (OAADPR) formed (or, alternatively, the amount of deacetylated Trp peptide generated) by the NAD-dependent sirtuin deacetylation reaction in the presence of varying concentrations of the test compound versus control reactions lacking the test compound. The degree to which the test agent activated deacetylation by SIRT1 was expressed as EC1.5 (i.e., the concentration of compound required to increase SIRT1 activity by 50% over the control lacking test compound), and Percent Maximum Activation (i.e., the maximum activity relative to control (100%) obtained for the test compound).
(§2) A control for inhibition of sirtuin activity was conducted by adding 1 μL of 500 mM nicotinamide as a negative control at the start of the reaction (e.g., permits determination of maximum sirtuin inhibition). A control for activation of sirtuin activity was conducted using 10 nM of sirtuin protein, with 1 μL of DMSO in place of compound, to determine the amount of deacetylation of the substrate at a given time point within the linear range of the assay. This time point was the same as that used for test compounds and, within the linear range, the endpoint represents a change in velocity. For the above assay, SIRT1 protein was expressed and purified as follows. The SirT1 gene was cloned into a T7-promoter containing vector and transformed into BL21(DE3). The protein was expressed by induction with 1 mM IPTG as an N-terminal His-tag fusion protein at 18° C. overnight and harvested at 30,000×g. Cells were lysed with lysozyme in lysis buffer (50 mM Tris-HCl, 2 mM Tris[2-carboxyethyl]phosphine (TCEP), 10 μM ZnCl2, 200 mM NaCl) and further treated with sonication for 10 min for complete lysis. The protein was purified over a Ni-NTA column (Amersham) and fractions containing pure protein were pooled, concentrated and run over a sizing column (Sephadex S200 26/60 global). The peak containing soluble protein was collected and run on an Ion-exchange column (MonoQ). Gradient elution (200 mM-500 mM NaCl) yielded pure protein. This protein was concentrated and dialyzed against dialysis buffer (20 mM Tris-HCl, 2 mM TCEP) overnight. The protein was aliquoted and frozen at −80° C. until further use.
Sirtuin-modulating compounds of Formula (I) that activated SIRT1 were identified using the assay described above and are shown below in Table 1. […]

[2] = molecular target: T1, SIRT1; test: TAMRA based mass spectrometry assay of SIRT1 activation; format: biochemical; settings: TAMRA peptide substrate; for Emax: 25 min, percent maximum fold activation relative to control (100%), read-out: TAMRA % Fold Act; for TAMRA EC1.5 (μM): concentration giving 150% activation of SIRT1
Description: as §1
The TAMRA based mass spectrometry assay was conducted as follows: 0.5 μM peptide substrate and 120 μM βNAD^+ was incubated with 10 nM SIRT1 for 25 minutes at 25° C. in a reaction buffer (50 mM Tris-acetate pH 8, 137 mM NaCl, 2.7 mM KCl, 1 mM MgCl2, 5 mM DTT, 0.05% BSA). The SIRT1 protein was obtained by cloning the SirT1 gene into a T7-promoter containing vector, which was then transformed and expressed in BL21(DE3) bacterial cells. Test compound was added at varying concentrations to this reaction mixture and the resulting reactions were monitored. After the 25 minute incubation with SIRT1, 10 μL of 10% formic acid was added to stop the reaction. The resulting reactions were sealed and frozen for later mass spec analysis. Determination of the amount of deacetylated substrate peptide formed (or, alternatively, the amount of O-acetyl-ADP-ribose (OAADPR) generated) by the sirtuin-mediated NAD-dependent deacetylation reaction allowed for the precise measurement of relative SIRT1 activity in the presence of varying concentrations of the test compound versus control reactions lacking the test compound.
as §2
Sirtuin-modulating compounds of Formula (I) that activated SIRT1 were identified using the assay described above and are shown below in Table 1. The EC1.5 values represent the concentration of test compounds that result in 150% activation of SIRT1. The EC1.5 values for the activating compounds of Formula (I) are represented by A (EC1.5<1 μM), B (EC1.5 1-25 μM), C (EC1.5>25 μM). […]

| TYP EC1.5 (μM) [1] | TYP % Fold Act [1] | Emax [2] | TAMRA EC1.5 (μM) [2] | SMILES |
| --- | --- | --- | --- | --- |
| A (EC1.5<1 μM) | B (Fold Activation <350%) | ≥ 350% | A (EC1.5<1 μM) | O=C(Nc1cccc(N2CCOCC2)n1)c1ccc2ncc(-c3cccc(C(F)(F)F)c3)n2n1 [Compound 48] |
| C (EC1.5>25 μM) | B (Fold Activation <350%) | < 350% | C (EC1.5>25 μM) | O=C(Nc1cccc(C(F)(F)F)n1)c1ccc2ncc(-c3ccccc3Cl)n2n1 [Compound 21] |
| C (EC1.5>25 μM) | B (Fold Activation <350%) | < 350% | C (EC1.5>25 μM) | O=C(Nc1ccc2ncc(-c3ccccc3F)n2n1)c1nccs1 [Compound 22] |
| C (EC1.5>25 μM) | B (Fold Activation <350%) | < 350% | C (EC1.5>25 μM) | O=C(Nc1nccs1)c1ccc2nnc(-c3cccc(N4CCOCC4)c3)n2n1 [Compound 5, 3-(3-morpholinophenyl)-N-(thiazol-2-yl)-[1,2,4]triazolo[4,3-b]pyridazine-6-carboxamide] |
| C (EC1.5>25 μM) | B (Fold Activation <350%) | < 350% | B (EC1.5 1-25 μM) | O=C(Nc1ccnc(C(F)(F)F)c1)c1ccc2ncc(-c3cccc(Cl)c3)n2n1 [Compound 19] |
| C (EC1.5>25 μM) | B (Fold Activation <350%) | < 350% | C (EC1.5>25 μM) | O=C(Nc1ccc2ncc(-c3cccc(C(F)(F)F)c3)n2n1)c1cnccn1 [Compound 14] |
| – | B (Fold Activation <350%) | < 350% | – | O=C(Nc1cccc(C(F)(F)F)n1)c1ccc2nnc(-c3cccc(Cl)c3)n2n1 [Compound 6] |
| B (EC1.5 1-25 μM) | B (Fold Activation <350%) | < 350% | C (EC1.5>25 μM) | O=C(Nc1nccs1)c1ccc2nnc(-c3cccc(OC(F)(F)F)c3)n2n1 [Compound 1, N-(thiazol-2-yl)-3-(3-(trifluoromethoxy)phenyl)-[1,2,4]triazolo[4,3-b]pyridazine-6-carboxamide] |
| C (EC1.5>25 μM) | B (Fold Activation <350%) | < 350% | C (EC1.5>25 μM) | O=C(Nc1ccc2ncc(-c3ccccc3Cl)n2n1)c1cnccn1 [Compound 15] |
| C (EC1.5>25 μM) | B (Fold Activation <350%) | < 350% | C (EC1.5>25 μM) | O=C(Nc1ccccn1)c1ccc2nnc(-c3cccc(N4CCOCC4)c3)n2n1 [Compound 4] |
| C (EC1.5>25 μM) | B (Fold Activation <350%) | < 350% | C (EC1.5>25 μM) | O=C(Nc1cccc(N2CCOCC2)n1)c1ccc2ncc(-c3cccc(F)c3)n2n1 [Compound 38] |
| C (EC1.5>25 μM) | B (Fold Activation <350%) | < 350% | C (EC1.5>25 μM) | O=C(Nc1ccc2ncc(-c3cccc(F)c3)n2n1)c1ncccn1 [Compound 16] |
| – | B (Fold Activation <350%) | < 350% | – | Cc1cc(C)nc(NC(=O)c2ccc3nnc(-c4cccc(C(F)(F)F)c4)n3n2)c1 [Compound 8] |
| C (EC1.5>25 μM) | B (Fold Activation <350%) | < 350% | C (EC1.5>25 μM) | O=C(Nc1ccc2ncc(-c3cccc(C(F)(F)F)c3)n2n1)c1nccs1 [Compound 18] |
| C (EC1.5>25 μM) | B (Fold Activation <350%) | < 350% | C (EC1.5>25 μM) | O=C(Nc1cccc(N2CCOCC2)n1)c1ccc2ncc(-c3ccccc3Cl)n2n1 [Compound 44] |
